In US20260193179A9 (priority 2018, published 2026):
Where a name gives a salt, the structure may show the parent alone. Read-outs that look alike come from different tables or passages of the source.

Assays:
human α-thrombin = human α-thrombin (Homo sapiens, UniProt P00734); experiment: Enzymatic Assay for Thrombin (Boc-VPR-AMC substrate); assay type: biochemical
mMASP-2 = mMASP-2 (Mus musculus, UniProt Q91WP0); experiment: Enzymatic assay for mMASP-2; assay type: biochemical
Lectin Pathway = Lectin Pathway Activation Assay in Human Serum (mannan-coated ELISA, C3c detection); assay type: biochemical; details: 1% human serum
Experimental: Microtiter ELISA plate was coated with mannan from Saccharomyces cerevisiae (Sigma-Aldrich, M7504) for overnight at 4° C. in coating buffer [15 mM Na2CO3, 35 mM NaHCO3]. Plate was blocked with 1% bovine serum albumin (BSA) (Sigma-Aldrich, A3294) in Tris-buffered Saline (TBS) [10 mM Tris-HCl, 140 mM NaCl] for 2 hours at room temperature. […] 100 μL of this mixture were then added to the plate and plate was incubated at 37° C. for up to an hour with gentle shaking, 200 rpm. After that, plate was washed thrice in wash buffer [TBS containing 5 mM CaCl2) and 0.05% Tween-20] and 100 μL of rabbit anti human C3c (Dako, A0062) diluted 1:5000 in wash buffer were added and incubated at 37° C. for 30 minutes.

MASP-2 (CCP1-CCP2-SP) [1] = molecular target: MASP-2 (CCP1-CCP2-SP) (Homo sapiens, UniProt O00187); experiment: Enzymatic Assay for MASP-2 (fluorogenic substrate); assay type: biochemical
MASP-2 (CCP1-CCP2-SP) [2] = experiment: Enzymatic Assay for MASP-2 (fluorogenic substrate); assay type: biochemical, human; details: selectivity for MASP-2 inhibition versus thrombin
[3] = human α-thrombin, Boc-VPR-AMC substrate

Chain of mMASP-2 (Q91WP0 20-685): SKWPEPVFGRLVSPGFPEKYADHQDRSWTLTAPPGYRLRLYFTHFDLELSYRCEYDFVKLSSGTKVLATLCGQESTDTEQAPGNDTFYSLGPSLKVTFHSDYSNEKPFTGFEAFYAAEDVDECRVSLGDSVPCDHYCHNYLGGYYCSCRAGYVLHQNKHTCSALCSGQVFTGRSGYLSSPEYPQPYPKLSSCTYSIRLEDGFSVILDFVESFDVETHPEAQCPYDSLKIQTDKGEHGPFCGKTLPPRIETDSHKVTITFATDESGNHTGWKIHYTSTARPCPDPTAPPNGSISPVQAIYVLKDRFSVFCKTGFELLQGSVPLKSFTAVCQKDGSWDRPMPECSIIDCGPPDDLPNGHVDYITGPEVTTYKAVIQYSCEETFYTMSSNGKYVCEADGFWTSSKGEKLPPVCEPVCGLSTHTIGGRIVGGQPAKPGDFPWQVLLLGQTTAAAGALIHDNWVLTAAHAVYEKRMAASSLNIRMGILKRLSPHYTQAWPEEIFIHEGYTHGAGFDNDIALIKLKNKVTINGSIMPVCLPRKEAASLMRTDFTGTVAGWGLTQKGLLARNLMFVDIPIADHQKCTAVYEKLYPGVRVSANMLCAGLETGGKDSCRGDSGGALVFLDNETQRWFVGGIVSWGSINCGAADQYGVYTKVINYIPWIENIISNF
Chain of MASP-2 (CCP1-CCP2-SP) (Homo sapiens, UniProt O00187) (O00187 445-686): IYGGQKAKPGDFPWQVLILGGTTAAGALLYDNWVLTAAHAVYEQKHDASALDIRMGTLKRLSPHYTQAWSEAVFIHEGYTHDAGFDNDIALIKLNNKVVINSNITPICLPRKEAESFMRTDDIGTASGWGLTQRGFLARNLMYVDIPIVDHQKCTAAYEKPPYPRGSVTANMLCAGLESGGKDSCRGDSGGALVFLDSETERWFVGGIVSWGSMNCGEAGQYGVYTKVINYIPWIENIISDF
Chain of MASP-2 (CCP1-CCP2-SP) (Homo sapiens, UniProt O00187) (O00187 298-444): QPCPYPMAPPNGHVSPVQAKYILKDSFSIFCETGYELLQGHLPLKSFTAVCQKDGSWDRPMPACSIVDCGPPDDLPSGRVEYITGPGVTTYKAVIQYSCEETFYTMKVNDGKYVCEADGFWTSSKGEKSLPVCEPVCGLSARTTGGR

SMILES | Ki (mMASP-2) | Ki (MASP-2 (CCP1-CCP2-SP) [1]) | MASP-2 vs. thrombin selectivity (MASP-2 (CCP1-CCP2-SP) [2]) | IC50 (Lectin Pathway; mannan-coated plate) | also measured
Cc1nc(N)ccc1CNC(=O)C(C)NC(=O)[C@H]1C[C@H](c2cccc(-c3ccccc3)c2)CN1 (stereo in doubt) [compound 1359, (2R,4R)-4-([1,1′-Biphenyl]-3-yl)-N—((S)-1-(((6-amino-2-methylpyridin-3-yl)methyl)amino)-1-oxopropan-2-yl)pyrrolidine-2-carboxamide Di-trifluoroacetate salt] |  |  |  |  | Ki (human α-thrombin; [3]): > 25 µM
C[C@H](NC(=O)[C@H](N)CCc1ccccc1)C(=O)NCc1cccc(Cl)c1 [compound 1021] | > 25 µM |  |  |  | Ki (human α-thrombin): > 25 µM; IC50 (Lectin Pathway): > 50 µM
C[C@H](NC(=O)[C@H](N)CCc1ccccc1)C(=O)NCc1ccc2c(N)ncnc2c1 [compound 1060, (R)-2-Amino-N—((S)-1-(((4-aminoquinazolin-7-yl)methyl)amino)-1-oxopropan-2-yl)-4-phenylbutanamide Dihydrochloride] |  | < 2.5 µM |  |  | 
C[C@H](NC(=O)[C@H](N)CCc1cccc(Cl)c1)C(=O)NCc1ccc(C(=N)N)cc1 [compound 1081] | < 0.5 µM |  |  |  | IC50 (Lectin Pathway): 0.05 to 5 µM
C[C@H](NC(=O)[C@@H](CCc1ccccc1)NCc1ccc(C(=O)N2CCOCC2)cc1)C(=O)NCc1ccc(C(=N)N)cc1 [compound 1153] |  | < 0.5 µM |  |  | Ki (human α-thrombin): < 0.5 µM
C[C@H](NC(=O)[C@H](N)CCc1ccccc1)C(=O)NCc1cc(Cl)ccc1C#N [compound 1313, Trifluoroacetate salt] | > 25 µM | 2.5 to 10 µM |  |  | Ki (human α-thrombin; [3]): 10 to 25 µM
C[C@H](OC(=O)[C@H](N)CCc1ccccc1)C(=O)NCc1ccc(C(=N)N)cc1 [compound 1315, (S)-1-((4-Carbamimidoylbenzyl)amino)-1-oxopropan-2-yl (R)-2-amino-4-phenylbutanoate Hydrochloride] |  | 0.5 to 2.5 µM |  |  | Ki (human α-thrombin; [3]): 2.5 to 10 µM
Cc1nc(N)ccc1CNC(=O)[C@H](C)NC(=O)[C@H]1C[C@H](Cc2ccc(-c3cccnc3)cc2)CN1 [compound 1357, (2R,4S)—N—((S)-1-(((6-Amino-2-methylpyridin-3-yl)methyl)amino)-1-oxopropan-2-yl)-4-(4-(pyridin-3-yl)benzyl)pyrrolidine-2-carboxamide Di-trifluoracetate salt] |  |  | **** (≥100-fold) | < 0.05 µM | 
Cc1cc(Cl)cc(CNC(=O)[C@H](C)NC(=O)[C@H]2C[C@@H](c3ccccc3)CCN2)c1O [compound 1365, (2R,4S)—N—((S)-1-((5-Chloro-2-hydroxy-3-methylbenzyl)amino)-1-oxopropan-2-yl)-4-phenylpiperidine-2-carboxamide] |  |  | **** (≥100-fold) | < 0.05 µM | 
Cc1nc(N)ccc1CNC(=O)[C@H](CCC(N)=O)NC(=O)[C@H](N)CCc1ccccc1 [compound 1376, (S)—N^1-((6-Amino-2-methylpyridin-3-yl)methyl)-2-((R)-2-amino-4-phenylbutanamido)pentanediamide] | > 25 µM | 0.5 to 2.5 µM |  |  | Ki (human α-thrombin; [3]): > 25 µM
Cc1nc(N)ccc1CNC(=O)[C@H](C)NC(=O)[C@H]1C[C@H](Cc2ccc(C3CCC3)cc2)CN1 [compound 1379, (2R,4S)—N—((S)-1-(((6-Amino-2-methylpyridin-3-yl)methyl)amino)-1-oxopropan-2-yl)-4-(4-cyclobutylbenzyl)pyrrolidine-2-carboxamide] |  |  | **** (≥100-fold) | 0.5 to 5 µM | 
C[C@H](NC(=O)[C@H]1C[C@H](Cc2ccc3ccccc3c2)CN1)C(=O)NCc1cc(Cl)ccc1-n1cnnn1 [compound 1385, (2R,4S)—N—((S)-1-((5-chloro-2-(1H-tetrazol-1-yl)benzyl)amino)-1-oxopropan-2-yl)-4-(naphthalen-2-ylmethyl)pyrrolidine-2-carboxamide] |  |  | ** (≥5.0 to <25-fold) | 0.05 to 0.5 µM | 
Cc1nc(N)ccc1CNC(=O)[C@H](C)NC(=O)[C@H]1C[C@H](Cc2ccc(N3CCCC3=O)cc2)CN1 [compound 1391, (2R,4S)—N—((S)-1-(((6-Amino-2-methylpyridin-3-yl)methyl)amino)-1-oxopropan-2-yl)-4-(4-(2-oxopyrrolidin-1-yl)benzyl)pyrrolidine-2-carboxamide] |  |  | **** (≥100-fold) | 0.5 to 5 µM | 
C[C@H](NC(=O)[C@H]1C[C@H](Cc2ccccc2-c2ccccc2)CN1)C(=O)NCc1cnc2[nH]cc(Cl)c2c1 [compound 1393, (2R,4S)-4-([1,1′-Biphenyl]-2-ylmethyl)-N—((S)-1-(((3-chloro-1H-pyrrolo[2,3-b]pyridin-5-yl)methyl)amino)-1-oxopropan-2-yl)pyrrolidine-2-carboxamide] |  |  | * (≥1.0 to <5.0-fold) | 0.05 to 0.5 µM | 
COc1cc(C[C@@H]2CN[C@@H](C(=O)N[C@@H](C)C(=O)NCc3cc(Cl)ccc3-n3cnnn3)C2)cc(OC)c1 [compound 1419, (2R,4S)—N—((S)-1-((5-Chloro-2-(1H-tetrazol-1-yl)benzyl)amino)-1-oxopropan-2-yl)-4-(3,5-dimethoxybenzyl)pyrrolidine-2-carboxamide] | < 0.5 µM |  | * (≥1.0 to <5.0-fold) |  | 
